# What was measured:
# [1] = tested on: patients with type 2 diabetes mellitus; experiment: Phase 2a trial, HbA1c (glycemic control); format: in vivo, human; details: for Visit 1 HbA1c mean: Visit 1 (Day 1, before first dose, baseline); for HbA1c Change vs Baseline mean / Visit 3 HbA1c mean: 14 daily doses; for Visit 3 HbA1c mean: Visit 3 (Day 15)
# Method: (§1) Five (5) dose groups were studied.
# (§2) The first dose of the study drug was given on Day 1 at 2200 h. Activity markers measured on Day 1 prior to administration of the drug (“Visit 1”). The last dose of study drug was given on Day 14 at 2200 h and activity markers measured on Day 15 (“Visit 3”). Measurements of safety markers were taken on Visits 1 and 3, as well as Visit 2 (Day 8) and Visit 4 (Day 28).
# This test measure levels of glycated hemoglobin and reflects the average blood glucose level for a subject over the preceding 3 months (approximately). Elevated levels are common in diabetics. Lowering the hemoglobin A1c number can delay or prevent the development of serious eye, kidney, and nerve disease in individuals with diabetes.
# [2] = tested on: patients with type 2 diabetes mellitus; experiment: Phase 2a trial, fructosamine (glycemic control); format: in vivo, human; details: for Fructosamine Visit 1 mean: Visit 1 (baseline, before first dose); for Fructosamine Change vs Baseline mean / Fructosamine Visit 3 mean: 14 daily doses; for Fructosamine Visit 3 mean: Visit 3 (Day 15)
# Method: as §1, §2
# Fructosamine levels were measured at baseline and after two weeks of therapy (see Table 4 and FIGS. 1 and 2). […] Fructosamine levels reflect blood glucose levels over the preceding 2-3 weeks.
# [3] = tested on: patients with type 2 diabetes mellitus; experiment: Phase 2a trial, total cholesterol; format: in vivo, human; details: for Total cholesterol Visit 1 mean: Visit 1 (baseline, before first dose); for Total cholesterol Change mean / Total cholesterol Mean % change / Total cholesterol Visit 3 mean: 14 daily doses; for Total cholesterol Visit 3 mean: Visit 3 (Day 15)
# Method: as §1, §2
# [4] = tested on: patients with type 2 diabetes mellitus; experiment: Phase 2a trial, LDL cholesterol; format: in vivo, human; details: for LDL cholesterol Visit 1 mean: Visit 1 (baseline, before first dose); for LDL cholesterol Mean % change / LDL cholesterol change mean / LDL cholesterol Visit 3 mean: 14 daily doses; for LDL cholesterol Visit 3 mean: Visit 3 (Day 15)
# Method: as §1, §2
# [5] = tested on: patients with type 2 diabetes mellitus; experiment: Phase 2a trial, continuous blood pressure monitoring; format: in vivo, human; details: Visits 1 and 3, 14 daily doses
# Method: as §1
# Continuous blood pressure monitoring was performed during Visits 1 and 3.
# [6] = tested on: patients with type 2 diabetes mellitus; experiment: Phase 2a trial, C-reactive protein (marker of inflammation); format: in vivo, human; details: for C-Reactive Protein (CRP) Visit 1 mean: Visit 1 (baseline, before first dose); for C-Reactive Protein (CRP) Visit 3 mean: Visit 3 (Day 15)
# Method: as §1, §2
# [7] = tested on: patients with type 2 diabetes mellitus; experiment: Phase 2a trial, liver function tests (AST/ALT/AP)
# Method: as §2
# [8] = plasma; Beagle dogs, racemic ketoconazole 30 mg/dog intravenous bolus
# Method: The pharmacokinetics of each of the ketoconazole enantiomers was studied following intravenous administration of racemic ketoconazole. Racemic ketoconazolewas dissolved in ethanol to 60 mg/ml. Each of three Beagle dogs was administered 0.5 ml bolus (30 mg/dog) intravenously.
# Blood was collected from each dog prior to dosing (“0 min”) and at 2, 5, 10, 15, 30 min, and 1, 2, 4, 6, 8, and 24 hrs post-dosing. At each timepoint, blood (0.3 mL/sample) was collected and placed into labeled Microtainer® tubes with heparin as the anti-coagulant. The heparinized blood was centrifuged, and the supernatant pipetted off into another set of labeled Eppendorf® tubes. The derived plasma samples were analyzed for each of the two ketoconazole enantiomers (2S,4R and 2R,4S) and pharmacokinetic parameters determined for each of the enantiomers.
# [9] = biological target: T1, 14a-lanosterol demethylase (Rattus norvegicus, UniProt Q64654); details: compared with the other (2R,4S) enantiomer; Rotstein et al. 1992; cited from earlier work
# T1 sequence (Q64654 1-503): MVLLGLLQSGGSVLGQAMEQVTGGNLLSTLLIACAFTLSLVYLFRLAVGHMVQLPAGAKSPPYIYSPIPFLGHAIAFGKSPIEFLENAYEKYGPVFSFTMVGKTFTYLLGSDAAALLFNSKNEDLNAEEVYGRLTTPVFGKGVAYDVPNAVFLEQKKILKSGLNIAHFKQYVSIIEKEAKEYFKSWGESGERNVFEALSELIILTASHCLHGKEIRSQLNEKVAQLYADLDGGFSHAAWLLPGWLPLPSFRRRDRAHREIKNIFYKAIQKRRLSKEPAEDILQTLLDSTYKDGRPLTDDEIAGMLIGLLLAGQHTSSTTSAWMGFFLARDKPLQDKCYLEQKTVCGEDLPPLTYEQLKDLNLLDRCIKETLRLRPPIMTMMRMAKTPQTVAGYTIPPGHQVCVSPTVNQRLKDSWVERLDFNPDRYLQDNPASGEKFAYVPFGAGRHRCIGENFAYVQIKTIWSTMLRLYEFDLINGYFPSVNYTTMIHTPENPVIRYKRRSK
# [10] = tested on: patients with type 2 diabetes mellitus; experiment: Phase 2a trial, fasting glucose; details: two weeks of treatment
# Source text: The secondary objective was to determine the pharmacokinetic (PK) profile in plasma of the 2S,4R enantiomer after a single dosing and after fourteen daily doses. In addition the pharmacodynamic activity of fourteen daily doses of the 2S,4R enantiomer, as reflected by changes in blood pressure, total and LDL cholesterol, CRP, plasma and salivary cortisol, cortisol binding globulin, measures of glycemic control (fructosamine, HbA1c and fasting blood glucose levels).
# Five (5) dose groups were studied. The dose groups are as follows (N=subjects who completed the study):
# [11] = Subject 02-002, 200 mg DIO-902, Screening Visit
# [12] = Subject 02-002, 200 mg DIO-902, Visit 1 (pre-1st dose)
# [13] = Subject 02-002, 200 mg DIO-902, Visit 2
# [14] = Subject 02-002, 200 mg DIO-902, Visit 3 (last dose)
# [15] = Subject 04-004, 400 mg DIO-902, Screening Visit
# [16] = Subject 04-004, 400 mg DIO-902, Visit 1 (pre-1st dose)
# [17] = Subject 04-004, 400 mg DIO-902, Visit 2
# [18] = Subject 04-004, 400 mg DIO-902, Visit 3 (last dose)
# [19] = Subject 04-010, 400 mg DIO-902, Screening Visit
# [20] = Subject 04-010, 400 mg DIO-902, Visit 1 (pre-1st dose)
# [21] = Subject 04-010, 400 mg DIO-902, Visit 2
# [22] = Subject 04-010, 400 mg DIO-902, Visit 3 (last dose)
substance,measurement,setting,value
"2S,4R ketoconazole [DIO-902]",Visit 1 HbA1c mean,[1]; 200 mg po QD group,8.18%
same,HbA1c Change vs Baseline mean,[1]; 200 mg po QD,−0.32%
same,Visit 3 HbA1c mean,[1]; 200 mg po QD,7.86%
same,Visit 1 HbA1c mean,[1]; 400 mg po QD group,7.88%
same,HbA1c Change vs Baseline mean,[1]; 400 mg po QD,−0.18%
same,Visit 3 HbA1c mean,[1]; 400 mg po QD,7.70%
same,Visit 1 HbA1c mean,[1]; 600 mg po QD group,9.10%
same,HbA1c Change vs Baseline mean,[1]; 600 mg po QD,−0.47%
same,Visit 3 HbA1c mean,[1]; 600 mg po QD,8.63%
same,effect on HbA1c,[1]; administration for 14 days,trends toward a reduction
same,Fructosamine Visit 1 mean,[2]; 200 mg po QD group,262 µmol/L
same,Fructosamine Change vs Baseline mean,[2]; 200 mg po QD,-12.20 µmol/L
same,Fructosamine Visit 3 mean,[2]; 200 mg po QD,249.80 µmol/L
same,Fructosamine Visit 1 mean,[2]; 400 mg po QD group,271.00 µmol/L
same,Fructosamine Change vs Baseline mean,[2]; 400 mg po QD,-8.33 µmol/L
same,Fructosamine Visit 3 mean,[2]; 400 mg po QD,262.67 µmol/L
same,Fructosamine Visit 1 mean,[2]; 600 mg po QD group,276.33 µmol/L
same,Fructosamine Change vs Baseline mean,[2]; 600 mg po QD,-29.33 µmol/L
same,Fructosamine Visit 3 mean,[2]; 600 mg po QD,247.00 µmol/L
same,effect on fructosamine,[2]; administration for 14 days,trends toward a reduction
same,Total cholesterol Visit 1 mean,[3]; 200 mg po QD group,227.20 mg/dL
same,Total cholesterol Change mean,[3]; 200 mg po QD,-26.10 mg/dL
same,Total cholesterol Mean % change,[3]; 200 mg po QD,−11.66%
same,Total cholesterol Visit 3 mean,[3]; 200 mg po QD,202.45 mg/dL
same,Total cholesterol Visit 1 mean,[3]; 400 mg po QD group,224.50 mg/dL
same,Total cholesterol Change mean,[3]; 400 mg po QD,-34.00 mg/dL
same,Total cholesterol Mean % change,[3]; 400 mg po QD,−15.35%
same,Total cholesterol Visit 3 mean,[3]; 400 mg po QD,190.50 mg/dL
same,Total cholesterol Visit 1 mean,[3]; 600 mg po QD group,195.33 mg/dL
same,Total cholesterol Change mean,[3]; 600 mg po QD,-48.75 mg/dL
same,Total cholesterol Mean % change,[3]; 600 mg po QD,−29.97%
same,Total cholesterol Visit 3 mean,[3]; 600 mg po QD,130.33 mg/dL
same,effect on total cholesterol,[3]; two-week administration,"Statistically significant, dose dependent decreases"
same,LDL cholesterol Visit 1 mean,[4]; 200 mg po QD group,141.60 mg/dL
same,LDL cholesterol Mean % change,[4]; 200 mg po QD,−11.39%
same,LDL cholesterol change mean,[4]; 200 mg po QD,-17.20 mg/dL
same,LDL cholesterol Visit 3 mean,[4]; 200 mg po QD,124.40 mg/dL
same,LDL cholesterol Visit 1 mean,[4]; 400 mg po QD group,133.33 mg/dL
same,LDL cholesterol Mean % change,[4]; 400 mg po QD,−27.44%
same,LDL cholesterol change mean,[4]; 400 mg po QD,-35.50 mg/dL
same,LDL cholesterol Visit 3 mean,[4]; 400 mg po QD,97.83 mg/dL
same,LDL cholesterol Visit 1 mean,[4]; 600 mg po QD group,125.67 mg/dL
same,LDL cholesterol Mean % change,[4]; 600 mg po QD,−42.14%
same,LDL cholesterol change mean,[4]; 600 mg po QD,-41.25 mg/dL
same,LDL cholesterol Visit 3 mean,[4]; 600 mg po QD,70.67 mg/dL
same,effect on LDL-C,[4]; two-week administration,"Statistically significant, dose dependent decreases"
same,effect on blood pressure readings,[5],no reductions
same,C-Reactive Protein (CRP) Visit 1 mean,[6]; 200 mg po QD group,6.91 mg/L
same,CRP Mean % change vs baseline,"[6]; 200 mg po QD, 14 daily doses",−19.8%
same,C-Reactive Protein (CRP) Visit 3 mean,"[6]; 200 mg po QD, 14 daily doses",4.78 mg/L
same,C-Reactive Protein (CRP) Visit 1 mean,[6]; 400 mg po QD group,4.02 mg/L
same,CRP Mean % change vs baseline,"[6]; 400 mg po QD, 14 daily doses",−27.35%
same,C-Reactive Protein (CRP) Visit 3 mean,"[6]; 400 mg po QD, 14 daily doses",2.95 mg/L
same,C-Reactive Protein (CRP) Visit 1 mean,[6]; 600 mg po QD group,8.35 mg/L
same,CRP Mean % change vs baseline,"[6]; 600 mg po QD, 14 daily doses",−48.64%
same,C-Reactive Protein (CRP) Visit 3 mean,"[6]; 600 mg po QD, 14 daily doses",5.05 mg/L
same,effect on CRP,[6]; 14 daily doses,dose-dependent decrease
same,evidence of hepatotoxicity,[7]; 14 daily doses,not observed
same,ALT,[7]; [11],30 u/L
same,AP,[7]; [11],110 u/L
same,AST,[7]; [11],58 u/L
same,ALT,[7]; [12],22 u/L
same,AP,[7]; [12],100 u/L
same,AST,[7]; [12],34 u/L
same,ALT,[7]; [13],21 u/L
same,AP,[7]; [13],103 u/L
same,AST,[7]; [13],30 u/L
same,ALT,[7]; [14],19 u/L
same,AP,[7]; [14],97 u/L
same,AST,[7]; [14],35 u/L
same,ALT,[7]; [15],25 u/L
same,AP,[7]; [15],132 u/L
same,AST,[7]; [15],48 u/L
same,ALT,[7]; [16],25 u/L
same,AP,[7]; [16],108 u/L
same,AST,[7]; [16],49 u/L
same,ALT,[7]; [17],28 u/L
same,AP,[7]; [17],125 u/L
same,AST,[7]; [17],49 u/L
same,ALT,[7]; [18],25 u/L
same,AP,[7]; [18],130 u/L
same,AST,[7]; [18],46 u/L
same,ALT,[7]; [19],27 u/L
same,AP,[7]; [19],73 u/L
same,AST,[7]; [19],49 u/L
same,ALT,[7]; [20],24 u/L
same,AP,[7]; [20],60 u/L
same,AST,[7]; [20],48 u/L
same,ALT,[7]; [21],14 u/L
same,AP,[7]; [21],82 u/L
same,AST,[7]; [21],40 u/L
same,ALT,[7]; [22],19 u/L
same,AP,[7]; [22],64 u/L
same,AST,[7]; [22],38 u/L
same,"liver function test values outside the normal range at baseline (hepato-protection, words)",[7]; two patients,normalized
same,clearance,[8],485 mL/h/kg
same,terminal half life,[8],1.397 h
same,activity against 14a-lanosterol demethylase,[9],more active
same,Reductions in fasting glucose levels,[10],up to 15 mg/dL

# — patent US9198906B2, “Ketoconazole enantiomer in humans” (Cortendo AB (publ), priority 2006, dated 2015)
